Experimental data taken from ChEMBL document CHEMBL4049409, “Structure-based discovery of LpxC inhibitors” (Bioorg Med Chem Lett, 2017).
In brackets after ≈: the same amount, converted by molar mass.

Assays:
[1] = Inhibition of LpxC in Acinetobacter baumannii focus ID 961025
[2] = tested on: Pseudomonas aeruginosa; test: Antibacterial activity against Pseudomonas aeruginosa isolate 44 ATCC 27853; type: functional
[3] = tested on: Klebsiella pneumoniae; test: Antibacterial activity against Klebsiella pneumoniae isolate 21 ATCC 4352; type: functional
[4] = tested on: Escherichia coli; test: Antibacterial activity against Escherichia coli isolate 35 ATCC 25922; type: functional
[5] = target: T1, UDP-3-O-acyl-N-acetylglucosamine deacetylase (Pseudomonas aeruginosa (strain ATCC 15692 / PAO1 / 1C / PRS 101 / LMG12228), UniProt P47205); test: Inhibition of LpxC in Pseudomonas aeruginosa isolate 44 ATCC 27853
T1 sequence (P47205 whole entry): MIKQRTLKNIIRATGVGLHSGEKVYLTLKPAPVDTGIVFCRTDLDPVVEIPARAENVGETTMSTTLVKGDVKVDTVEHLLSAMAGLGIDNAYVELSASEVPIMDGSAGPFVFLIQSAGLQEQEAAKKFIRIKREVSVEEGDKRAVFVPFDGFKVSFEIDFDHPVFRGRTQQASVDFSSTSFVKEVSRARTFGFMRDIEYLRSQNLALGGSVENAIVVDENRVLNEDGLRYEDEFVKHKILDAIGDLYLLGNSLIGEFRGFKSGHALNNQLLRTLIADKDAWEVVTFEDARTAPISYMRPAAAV

[6] = tested on: Acinetobacter baumannii; test: Antibacterial activity against Acinetobacter baumannii focus ID 961025; type: functional
[7] = Inhibition of LpxC in Klebsiella pneumoniae isolate 21 ATCC 4352
[8] = target: T2, UDP-3-O-acyl-N-acetylglucosamine deacetylase (Escherichia coli K-12, UniProt P0A725); test: Inhibition of LpxC in Escherichia coli isolate 35 ATCC 25922; parameters: species or system Escherichia coli ATCC 25922
T2 sequence (P0A725 whole entry): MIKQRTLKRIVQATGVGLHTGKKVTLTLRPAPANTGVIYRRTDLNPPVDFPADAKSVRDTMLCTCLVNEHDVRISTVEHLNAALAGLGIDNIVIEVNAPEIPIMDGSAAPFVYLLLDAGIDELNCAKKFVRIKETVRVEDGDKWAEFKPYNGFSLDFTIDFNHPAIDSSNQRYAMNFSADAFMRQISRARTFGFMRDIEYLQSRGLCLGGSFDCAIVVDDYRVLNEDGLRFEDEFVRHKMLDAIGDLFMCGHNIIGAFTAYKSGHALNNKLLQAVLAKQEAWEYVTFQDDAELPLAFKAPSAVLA

Row | Structure (SMILES) | IC50 [1] | MIC [2] | MIC [3] | MIC [4] | IC50 [5] | MIC [6] | IC50 [7] | IC50 [8]
1 | CCC(N[C@H](C(=O)NO)[C@@H](C)O)c1ccc(C#Cc2ccccc2)cc1 (some centres not stated) | 0.566 µM | > 64 mg/L | 2 mg/L (≈ 5.67 µM) | 4 mg/L (≈ 11.3 µM) | 0.214 µM | > 64 mg/L | 0.12 µM | 0.215 µM
2 | C[C@@H](O)[C@H](NCc1ccc(C#Cc2ccccc2)cc1)C(=O)NO | 0.017 µM | > 128 mg/L | 0.5 mg/L (≈ 1.54 µM) | 4 mg/L (≈ 12.3 µM) | 0.02 µM | 32 mg/L (≈ 98.6 µM) | 0.048 µM | 0.067 µM
3 | C[C@@H](O)[C@H](NC1CCN(C)c2cc(C#Cc3ccccc3)ccc21)C(=O)NO (some centres not stated) | 0.124 µM | > 128 mg/L | 1 mg/L (≈ 2.64 µM) | 8 mg/L (≈ 21.1 µM) | 0.015 µM | > 128 mg/L | 0.004 µM | 0.002 µM
4 | CCCC(N[C@H](C(=O)NO)[C@@H](C)O)c1ccc(C#Cc2ccccc2)cc1 (some centres not stated) | 0.273 µM | 64 mg/L (≈ 175 µM) | 0.25 mg/L (≈ 0.682 µM) | 2 mg/L (≈ 5.46 µM) | 0.05 µM | 32 mg/L (≈ 87.3 µM) | 0.053 µM | 0.06 µM
5 | C[C@@H](O)[C@H](NC1CCOc2cc(C#Cc3ccc(CN4CCOCC4)cc3)ccc21)C(=O)NO (some centres not stated) | 0.083 µM | 16 mg/L (≈ 34.4 µM) | < 0.125 mg/L | 2 mg/L (≈ 4.3 µM) | 0.006 µM | 64 mg/L (≈ 137 µM) | 0.002 µM | 0.001 µM
6 | C[C@@H](O)[C@H](NC1CCCc2cc(C#Cc3ccccc3)ccc21)C(=O)NO (some centres not stated) | 0.04 µM | 32 mg/L (≈ 87.8 µM) | 0.25 mg/L (≈ 0.686 µM) | 1 mg/L (≈ 2.74 µM) | 0.005 µM | 16 mg/L (≈ 43.9 µM) | 0.0002 µM | 0.001 µM
7 | C[C@@H](O)[C@H](NC1CCc2cc(C#Cc3ccccc3)ccc21)C(=O)NO (some centres not stated) | 0.165 µM | 32 mg/L (≈ 91.3 µM) | 0.125 mg/L (≈ 0.357 µM) | 0.5 mg/L (≈ 1.43 µM) | 0.02 µM | 16 mg/L (≈ 45.7 µM) | 0.005 µM | 0.007 µM
8 | C[C@@H](O)[C@H](NC1CN(C)Cc2cc(C#Cc3ccccc3)ccc21)C(=O)NO (some centres not stated) | 0.31 µM | > 128 mg/L | 0.5 mg/L (≈ 1.32 µM) | 2 mg/L (≈ 5.27 µM) | 0.108 µM | > 128 mg/L | 0.018 µM | 0.028 µM
9 | C[C@@H](O)[C@H](N[C@@H]1CCc2cc(C#Cc3ccc(CN4CCOCC4)cc3)ccc21)C(=O)NO | 1.99 µM | 128 mg/L (≈ 285 µM) | 0.125 mg/L (≈ 0.278 µM) | 0.5 mg/L (≈ 1.11 µM) | 0.008 µM | 64 mg/L (≈ 142 µM) | 0.007 µM | 0.003 µM
10 | CC(N[C@H](C(=O)NO)[C@@H](C)O)c1ccc(C#Cc2ccccc2)cc1 (some centres not stated) | 0.16 µM | > 64 mg/L | 1 mg/L (≈ 2.96 µM) | 4 mg/L (≈ 11.8 µM) | 0.072 µM | 64 mg/L (≈ 189 µM) | 0.064 µM | 0.096 µM
11 | CCCCC(N[C@H](C(=O)NO)[C@@H](C)O)c1ccc(C#Cc2ccccc2)cc1 (some centres not stated) | 1.46 µM | > 128 mg/L | 2 mg/L (≈ 5.26 µM) | 64 mg/L (≈ 168 µM) | 0.616 µM | > 128 mg/L | 0.724 µM | 0.534 µM
12 | C[C@@H](O)[C@H](NC1CCN(C)c2cc(C#Cc3ccc(CN4CCOCC4)cc3)ccc21)C(=O)NO (some centres not stated) | 0.331 µM | > 32 mg/L | 0.125 mg/L (≈ 0.261 µM) | 2 mg/L (≈ 4.18 µM) | 0.018 µM | > 32 mg/L | 0.002 µM | 0.002 µM
13 | C[C@@H](O)[C@H](NC1CCOc2cc(C#Cc3ccccc3)ccc21)C(=O)NO (some centres not stated) | 0.036 µM | 128 mg/L (≈ 349 µM) | < 0.125 mg/L | 2 mg/L (≈ 5.46 µM) | 0.013 µM | 32 mg/L (≈ 87.3 µM) | 0.008 µM | 0.011 µM
14 | C[C@@H](O)[C@H](NC1COCc2cc(C#Cc3ccc(CN4CCOCC4)cc3)ccc21)C(=O)NO (some centres not stated) | 0.025 µM | 64 mg/L (≈ 137 µM) | < 0.125 mg/L | 0.25 mg/L (≈ 0.537 µM) | 0.006 µM | 64 mg/L (≈ 137 µM) | 0.001 µM | 0.001 µM
